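Results reflect a 48-hour exposure of cells in 96-well plates to compound at five concentrations. At the GI50, growth is halved.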 The source made the active and inactive calls. Rule as the data show it: active = GI50 up to about 1.1 µM and inactive = higher.
Tests used:
Assay in all cases: NCI tumour cell line growth inhibition, 48 h
U-251 = tested on: U-251
KM12 = tested on: KM12
SK-MEL-28 = tested on: SK-MEL-28
OVCAR-5 = tested on: OVCAR-5
NCI-H226 = tested on: NCI-H226
ACHN = tested on: ACHN
NCI/ADR-RES = tested on: NCI/ADR-RES
SN12C = tested on: SN12C
SNB-75 = tested on: SNB-75
BT-549 = tested on: BT-549
SW-620 = tested on: SW-620
HOP-92 = tested on: HOP-92
OVCAR-4 = tested on: OVCAR-4
COLO 205 = tested on: COLO 205
SNB-19 = tested on: SNB-19
MDA-MB-231 = tested on: MDA-MB-231
HL-60 = tested on: HL-60
Hs-578T = tested on: Hs-578T
MOLT-4 = tested on: MOLT-4
A498 = tested on: A498

Row | SMILES | GI50 (U-251) | GI50 (KM12) | GI50 (SK-MEL-28) | GI50 (OVCAR-5) | GI50 (NCI-H226) | GI50 (ACHN) | GI50 (NCI/ADR-RES) | GI50 (SN12C) | GI50 (SNB-75) | GI50 (BT-549) | GI50 (SW-620) | GI50 (HOP-92) | GI50 (OVCAR-4) | GI50 (COLO 205) | GI50 (SNB-19) | GI50 (MDA-MB-231) | GI50 (HL-60) | GI50 (Hs-578T) | GI50 (MOLT-4) | GI50 (A498)
1 | Cc1ccc(/N=C2/C(c3ccccc3)=C(SC3=C(c4ccccc4)/C(=N/c4ccc(C)cc4)c4ccccc43)c3ccccc32)cc1 | 15.7 µM (inactive) | 39.4 µM (inactive) | > 39.7 µM (inactive) | 39 µM (inactive) | 24.4 µM (inactive) | 3.38 µM (inactive) | 22.1 µM (inactive) | 20.9 µM (inactive) | 8.63 µM (inactive) | 23.7 µM (inactive) | > 100 µM (inactive) | 12.1 µM (inactive) | 4.09 µM (inactive) | > 100 µM (inactive) | 6.31 µM (inactive) | 12.6 µM (inactive) | 7.87 µM (inactive) | 9.98 µM (inactive) | > 87.7 µM (inactive) | 15.2 µM (inactive)
2 | Cc1cccc(Nc2cc(Cl)nc(SCC(=O)O)n2)c1C [PIRINIXIC ACID] | > 100 µM (inactive) | > 100 µM (inactive) | > 100 µM (inactive) | > 100 µM (inactive) | > 100 µM (inactive) | > 100 µM (inactive) | > 100 µM (inactive) | > 100 µM (inactive) | > 100 µM (inactive) | > 100 µM (inactive) | > 100 µM (inactive) | > 100 µM (inactive) | > 100 µM (inactive) | > 100 µM (inactive) | > 100 µM (inactive) | > 100 µM (inactive) | > 100 µM (inactive) | > 100 µM (inactive) | 63.1 µM (inactive) | > 100 µM (inactive)
3 | COc1ccc(/C=C/C(=O)N[C@@H]2C(=O)N3[C@@H]2SC(C)(C)[C@@H]3C(=O)O)cc1OC | > 100 µM (inactive) | > 100 µM (inactive) | > 100 µM (inactive) | > 100 µM (inactive) | > 100 µM (inactive) | > 100 µM (inactive) | > 100 µM (inactive) | > 100 µM (inactive) | > 100 µM (inactive) | > 100 µM (inactive) | > 100 µM (inactive) | > 100 µM (inactive) | > 100 µM (inactive) | > 100 µM (inactive) | > 100 µM (inactive) | > 100 µM (inactive) | > 100 µM (inactive) | > 100 µM (inactive) | > 100 µM (inactive) | > 100 µM (inactive)
4 | O=C1c2cccc3cccc(c23)C(=O)N1CCCNCCCCNCCCN1C(=O)c2cccc3cccc(c23)C1=O | 0.0402 µM (active) | 0.108 µM (active) | 0.238 µM (active) | 0.316 µM (active) | 0.748 µM (active) | 0.757 µM (active) | 14.5 µM (inactive) | 0.104 µM (active) | 0.202 µM (active) | 1.25 µM (inactive) | 0.0612 µM (active) | 0.18 µM (active) | 0.2 µM (active) | 0.192 µM (active) | 0.124 µM (active) | 0.137 µM (active) | 0.32 µM (active) | 0.0401 µM (active) | < 0.01 µM (active) | 0.946 µM (active)
5 | Cc1oc2nc(N(C)C)n3nnnc3c2c1C | > 100 µM (inactive) | > 100 µM (inactive) | > 100 µM (inactive) | > 100 µM (inactive) | > 100 µM (inactive) | 61.9 µM (inactive) | > 100 µM (inactive) | > 100 µM (inactive) | 67.5 µM (inactive) | 74.1 µM (inactive) | > 100 µM (inactive) | > 100 µM (inactive) | 48 µM (inactive) | > 100 µM (inactive) | > 100 µM (inactive) | > 100 µM (inactive) | 18.6 µM (inactive) | > 100 µM (inactive) | > 100 µM (inactive) | 76.2 µM (inactive)
6 | Nc1ccc2c(SCC(=O)Nc3ccccc3-c3ccccc3NC(=O)CSc3c4ccccc4nc4cc(N)ccc34)c3ccccc3nc2c1 | 22 µM (inactive) | 19.5 µM (inactive) | 21.8 µM (inactive) | 70 µM (inactive) | 29.3 µM (inactive) | 32.8 µM (inactive) | 32.6 µM (inactive) | 28.5 µM (inactive) | 38.5 µM (inactive) | 42 µM (inactive) | 29.6 µM (inactive) | 43.5 µM (inactive) | 29 µM (inactive) | 14.2 µM (inactive) | 18.9 µM (inactive) | > 50.4 µM (inactive) | 3.21 µM (inactive) | > 59.3 µM (inactive) | 3.35 µM (inactive) | 29.9 µM (inactive)
7 | CCOP(=O)(OCC)/C(C#N)=C/c1ccc(-c2ccc(F)cc2F)o1 | 14.8 µM (inactive) | 16 µM (inactive) | 14.8 µM (inactive) | 17.3 µM (inactive) | 16.5 µM (inactive) | 13.3 µM (inactive) | 22.1 µM (inactive) | 15.8 µM (inactive) | 18.5 µM (inactive) | 11.7 µM (inactive) | 18.7 µM (inactive) | 15.2 µM (inactive) | 18.2 µM (inactive) | 14.9 µM (inactive) | 16.9 µM (inactive) | 16.7 µM (inactive) | 12.3 µM (inactive) | > 10 µM (inactive) | 10.6 µM (inactive) | 15.1 µM (inactive)
8 | O=C1C(Cl)=C(Cl)C(=O)C2=C1C1c3ccccc3C2c2ccccc21 | 20.9 µM (inactive) | 59 µM (inactive) | 38.7 µM (inactive) | > 100 µM (inactive) | > 100 µM (inactive) | 43.2 µM (inactive) | 94.8 µM (inactive) | > 100 µM (inactive) | > 100 µM (inactive) | 14.8 µM (inactive) | 29.4 µM (inactive) | 19.5 µM (inactive) | 34.3 µM (inactive) | 24.2 µM (inactive) | 49.5 µM (inactive) | 31.1 µM (inactive) | 26.2 µM (inactive) | 39.4 µM (inactive) | > 100 µM (inactive) | > 100 µM (inactive)
9 | COC(O)C12OC3CO[Si](C(C)C)(C(C)C)O[Si](C(C)C)(C(C)C)OC3C1Oc1nc(=O)ccn12 (stereo not given) | > 31.7 µM (inactive) | 5.61 µM (inactive) | > 100 µM (inactive) | 15.7 µM (inactive) | 17.7 µM (inactive) | 14.1 µM (inactive) | 21.6 µM (inactive) | 13.3 µM (inactive) | 26.2 µM (inactive) | 15.5 µM (inactive) | > 36.8 µM (inactive) | 10.1 µM (inactive) | 14.2 µM (inactive) | 12.7 µM (inactive) | 14.4 µM (inactive) | 17.1 µM (inactive) | 3.29 µM (inactive) | 2.67 µM (inactive) | 2.15 µM (inactive) | 17.3 µM (inactive)
10 | O=C(O)c1ccccc1-c1ccccc1C(=O)c1ccccc1 | > 100 µM (inactive) | > 100 µM (inactive) | > 100 µM (inactive) | > 100 µM (inactive) | > 100 µM (inactive) | > 100 µM (inactive) | > 100 µM (inactive) | > 100 µM (inactive) | > 100 µM (inactive) | > 100 µM (inactive) | > 100 µM (inactive) | 51.6 µM (inactive) | > 100 µM (inactive) | > 100 µM (inactive) | > 100 µM (inactive) | > 100 µM (inactive) | > 100 µM (inactive) | > 100 µM (inactive) | > 100 µM (inactive) | > 100 µM (inactive)
